We go through 20 compounds from patent US8178688B2, “Benzamidine derivatives, process for the preparation thereof and pharmaceutical composition comprising the same” (Dong Wha Pharmaceutical Co., Ltd., priority 2004, dated 2012).

The test system of one data set is cells. Put plainly: Cytotoxicity test (MTT). It is filed as cell-based. To be noted: 10^−6M, 72 hrs, compared with the control group. As for the experimental part:
Cytotoxic effect of benzamidine derivatives was evaluated by the experiment described below.
The test substance was diluted in appropriate solvent at 10^−2M concentration. […] Cells to be used in cytotoxitic test were plated on a 96-well microplate in a dose of 1×10^4 cell/100 μL per well and cultured for 72 hrs. 25 μL of MTT [3-(4,5-dimethyl-2-thiazolyl)-2,5-diphenyl-2H-tetrazolium bromide] dissolved in PBS at 2 mg/mL were added before 4 hrs of the end of culture. After reaction, the plates were centrifuged, medium was decanted and 100 μL of DMSO was added to dissolve formazan. Lastly, the absorbance of developed plates was measured at 540 nm.

Data set [1] relates to osteoclast differentiation. Put plainly: Inhibitory effects on osteoclast differentiation (co-culture of bone marrow cells with osteoblast, TRAP staining). It is filed as cell-based, mice. As to conditions: co-culture of bone marrow cells and osteoblast, 7 days, TRAP-positive osteoclasts versus controls; for inhibition at 1 µM: Mus musculus, Osteoclast, 168 h, 1 m, read-out: % inhibitory activity on osteoclastogenesis. In outline: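 Percent inhibition versus control is based on microscope counts of TRAP-positive osteoclasts (3 or more nuclei) after 7 days of compound exposure. Cultures paired ddY mouse marrow cells with ICR calvarial osteoblasts, driven by dexamethasone 10^−7M plus vitamin D3 10^−8M, with medium and compound changed every 2–3 days.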

`CCS(=O)(=O)Nc1nc(-c2ccc(OCCCCCOc3ccc(C(=N)NO)cc3)cc2)c(C)s1` [Example 93, N-hydroxy-4-(5-[4-(2-ethanesulfonylamino-5-methyl-1,3-thiazol-4-yl)phenoxy]pentoxy)-benzamidine]: the “Survival rates of the cells” value stood at 66.8% with cells (MC3T3-E1 cells) and 55.0% in the data set with cells (ST2 cells). Besides, the inhibition at 1 µM in data set [1] worked out at 63.7%.

As for `CCc1sc(NC)nc1-c1ccc(OCCCCCOc2ccc(C(=N)NO)cc2)cc1` [Example 96, N-hydroxy-4-(5-[4-(5-ethyl-2-methylamino-1,3-thiazol-4-yl)phenoxy]pentoxy)-benzamidine], the “Survival rates of the cells” value came to 65.1% in the data set with cells (MC3T3-E1 cells) and 27.8% in the data set with cells (ST2 cells). For the same compound, the inhibition at 1 µM in data set [1] is 64.3%.

Regarding `CCCNc1nc(-c2ccc(OCCCCCOc3ccc(C(=N)NO)cc3)cc2)c(CC)s1` [Example 98, N-hydroxy-4-(5-[4-(5-ethyl-2-propylamino-1,3-thiazol-4-yl)phenoxy]pentoxy)-benzamidine], the “Survival rates of the cells” value amounted to 77.1% with cells (MC3T3-E1 cells) and 26.9% with cells (ST2 cells). Besides, the inhibition at 1 µM in data set [1] amounted to 94.7%.

Regarding `CCc1sc(NC(=O)c2ccncc2)nc1-c1ccc(OCCCCCOc2ccc(C(=N)NO)cc2)cc1` [Example 100, N-hydroxy-4-(5-[4-(5-ethyl-2-(4-pyridylcarbonyl)amino-1,3-thiazol-4-yl)phenoxy]pentoxy)-benzamidine], the “Survival rates of the cells” value with cells (MC3T3-E1 cells) is given as 62.8%; in the data set with cells (ST2 cells) it was 39.1%. Moreover, in data set [1], the inhibition at 1 µM was determined as 63%.

In the case of `CNc1nc(-c2ccc(OCCCCCOc3ccc(C(=N)NO)cc3)cc2)c(Cc2ccccc2)s1` [Example 107, N-hydroxy-4-(5-[4-(5-benzyl-2-methylamino-1,3-thiazol-4-yl)phenoxy]pentoxy)-benzamidine], the “Survival rates of the cells” value amounted to 65.2% with cells (MC3T3-E1 cells) and 43.9% in the data set with cells (ST2 cells). Besides, the inhibition at 1 µM in data set [1] worked out at 53.2%.

For `CNc1nc(-c2ccc(OCCCCCOc3ccc(C(=N)NO)cc3)cc2)c(CC2CCCC2)s1` [Example 109, N-hydroxy-4-(5-[4-(5-cyclopentylmethyl-2-methylamino-1,3-thiazol-4-yl)phenoxy]pentoxy)-benzamidine], the “Survival rates of the cells” value in the data set on cells (MC3T3-E1 cells) was 65.7%; with cells (ST2 cells), 39.0%. Also, the inhibition at 1 µM in data set [1] turned out to be 80.5%.

As to `N=C(NO)c1ccc(OCCCCCOc2ccc(-c3nc(NC(=O)c4ccncc4)sc3CC3CCCC3)cc2)cc1` [Example 112, N-hydroxy-4-(5-[4-(5-cyclopentylmethyl-2-(4-pyridylcarbonyl)amino-1,3-thiazol-4-yl)phenoxy]pentoxy)-benzamidine], the “Survival rates of the cells” value was found to be 86.7% with cells (MC3T3-E1 cells) and 63.6% with cells (ST2 cells). Besides, the inhibition at 1 µM in data set [1] came out at 76.8%.

On to `CCS(=O)(=O)N(C)c1nc(-c2ccc(OCCCCCOc3ccc(C(=N)NO)cc3)cc2)cs1` [Example 118, N-hydroxy-4-(5-[4-(2-(ethanesulfonyl-methyl-amino)-1,3-thiazol-4-yl)phenoxy]pentoxy)-benzamidine], for which the “Survival rates of the cells” value is 75.3% in the data set on cells (MC3T3-E1 cells) and 53.2% in the data set with cells (ST2 cells). The inhibition at 1 µM in data set [1] was 82.9%.

For the compound `CCN(CCO)c1nc(-c2ccc(OCCCCCOc3ccc(C(=N)NO)cc3)cc2)c(C)s1` [Example 121, N-hydroxy-4-(5-[4-(2-(ethyl-(2-hydroxyethyl)-amino)-5-methyl-1,3-thiazol-4-yl)phenoxy]pentoxy)-benzamidine], the results for the “Survival rates of the cells” value in the data set with cells (MC3T3-E1 cells) and with cells (ST2 cells) were 100.0% and 41.4%, respectively. Moreover, in data set [1], the inhibition at 1 µM was 69.4%.

Regarding `Cc1sc(N(C)Cc2ccccc2)nc1-c1ccc(OCCCCCOc2ccc(C(=N)NO)cc2)cc1` [Example 125, N-hydroxy-4-(5-[4-(2-(benzyl-methyl-amino)-5-methyl-1,3-thiazol-4-yl)phenoxy]pentoxy)-benzamidine], the “Survival rates of the cells” value is 57.6% with cells (MC3T3-E1 cells) and 47.9% in the data set with cells (ST2 cells). In addition, the inhibition at 1 µM in data set [1] stood at 73%.

`CCc1sc(N(CC)CCO)nc1-c1ccc(OCCCCCOc2ccc(C(=N)NO)cc2)cc1` [Example 130, N-hydroxy-4-(5-[4-(5-ethyl-2-(ethyl-(2-hydroxyethyl)-amino)-1,3-thiazol-4-yl)phenoxy]pentoxy)-benzamidine]: the “Survival rates of the cells” value in the data set with cells (MC3T3-E1 cells) turned out to be 100.0%; with cells (ST2 cells) it was 37.2%. For the same compound, the inhibition at 1 µM in data set [1] was determined as 55.8%.

`CCc1sc(N(C)Cc2ccccc2)nc1-c1ccc(OCCCCCOc2ccc(C(=N)NO)cc2)cc1` [Example 133, N-hydroxy-4-(5-[4-(2-(benzyl-methyl-amino)-5-ethyl-1,3-thiazol-4-yl)phenoxy]pentoxy)-benzamidine]: the “Survival rates of the cells” value with cells (MC3T3-E1 cells) was determined as 62.6%; in the data set on cells (ST2 cells), 46.4%. In data set [1], the inhibition at 1 µM turned out to be 76.6%.

For the compound `CCc1sc(N(C)Cc2cccnc2)nc1-c1ccc(OCCCCCOc2ccc(C(=N)NO)cc2)cc1` [Example 134, N-hydroxy-4-(5-[4-(5-ethyl-2-(methyl-(pyridin-3-yl-methyl)amino)-1,3-thiazol-4-yl)phenoxy]pentoxy)-benzamidine], the “Survival rates of the cells” value in the data set on cells (MC3T3-E1 cells) amounted to 43.9%; in the data set on cells (ST2 cells), 37.4%. Besides, the inhibition at 1 µM in data set [1] worked out at 63.7%.

Regarding `CCc1sc(N(CC)Cc2cccnc2)nc1-c1ccc(OCCCCCOc2ccc(C(=N)NO)cc2)cc1` [Example 136, N-hydroxy-4-(5-[4-(5-ethyl-2-(ethyl-(pyridin-3-yl-methyl)amino)-1,3-thiazol-4-yl)phenoxy]pentoxy)-benzamidine], the “Survival rates of the cells” value with cells (MC3T3-E1 cells) was found to be 48.5%; in the data set with cells (ST2 cells), 29.9%. Besides, in data set [1], the inhibition at 1 µM was determined as 49.2%.

As to `CCc1sc(N(CCO)CCO)nc1-c1ccc(OCCCCCOc2ccc(C(=N)NO)cc2)cc1` [Example 139, N-hydroxy-4-(5-[4-(2-(bis-(2-hydroxyethyl)amino)-5-ethyl-1,3-thiazol-4-yl)phenoxy]pentoxy)-benzamidine], the “Survival rates of the cells” value in the data set with cells (MC3T3-E1 cells) came to 77.4%; in the data set on cells (ST2 cells), 48.1%. In data set [1], the inhibition at 1 µM is 84.1%.

`CC(C)c1sc(N(C)Cc2cccnc2)nc1-c1ccc(OCCCCCOc2ccc(C(=N)NO)cc2)cc1` [Example 141, N-hydroxy-4-(5-[4-(5-isopropyl-2-(methyl-(pyridin-3-yl-methyl)amino)-1,3-thiazol-4-yl)phenoxy]pentoxy)-benzamidine]: the figures for the “Survival rates of the cells” value in the data set with cells (MC3T3-E1 cells) and with cells (ST2 cells) were 52.8% and 27.9%, respectively. For the same compound, the inhibition at 1 µM in data set [1] stood at 74.8%.

Regarding `CCCCc1sc(N(CCC)CCC)nc1-c1ccc(OCCCCCOc2ccc(C(=N)NO)cc2)cc1` [Example 146, N-hydroxy-4-(5-[4-(5-butyl-2-dipropylamino-1,3-thiazol-4-yl)phenoxy]pentoxy)-benzamidine], the results for the “Survival rates of the cells” value with cells (MC3T3-E1 cells) and in the data set with cells (ST2 cells) were 88.4% and 38.2%, respectively. The inhibition at 1 µM in data set [1] was determined as 94.4%.

In the case of `CN(Cc1cccnc1)c1nc(-c2ccc(OCCCCCOc3ccc(C(=N)NO)cc3)cc2)c(CC2CCCC2)s1` [Example 147, N-hydroxy-4-(5-[4-(5-cyclopentylmethyl-2-(methyl-(pyridin-3-yl-methyl)amino)-1,3-thiazol-4-yl)phenoxy]pentoxy)-benzamidine], the entries for the “Survival rates of the cells” value in the data set with cells (MC3T3-E1 cells) and with cells (ST2 cells) were 100.0% and 42.4%, respectively. In addition, in data set [1], the inhibition at 1 µM stood at 81.1%.

As to `CCc1sc(N2CCCCC2)nc1-c1ccc(OCCCCCOc2ccc(C(=N)NO)cc2)cc1` [Example 166, N-hydroxy-4-(5-[4-(5-ethyl-2-piperdino-1,3-thiazol-4-yl)phenoxy]pentoxy)-benzamidine], the “Survival rates of the cells” value is reported as 71.2% with cells (MC3T3-E1 cells) and 52.4% in the data set with cells (ST2 cells). Moreover, the “% inhibitory activity on osteoclastogenesis” value in data set [1] was determined as 81.2%.

As for `Cc1nc(-c2ccc(OCCCN3CCN(CCCOc4ccc(C(=N)NO)cc4)CC3)cc2)c(C(C)C)s1` [Example 181, N-hydroxy-4-(3-[4-(3-(4-(5-isopropyl-2-methyl-1,3-thiazol-4-yl)-phenoxy)-propyl)-piperazin-1-yl]-propoxy)-benzamidine], the “Survival rates of the cells” value is recorded as 99.5% with cells (MC3T3-E1 cells) and 36.7% in the data set on cells (ST2 cells). Besides, the inhibition at 1 µM in data set [1] is 54.1%.
